In ChEMBL document CHEMBL4813937, “Jatrophane Diterpenoids from Euphorbia peplus as Multidrug Resistance Modulators with Inhibitory Effects on the ATR-Chk-1 Pathway” (J Nat Prod, 2021) one finds Activity and inhibition data, which are given here for six compounds.

Calls of active or inactive are those of the source. The calls are words filed in the database; no cut-off is given here.

For the first test, the system named is A549. In words: Induction of apoptosis in human A549 cells assessed as increase in PARP cleavage at 25 uM incubated for 48 hrs by Western blotting analysis. The format is functional, cell-based. A general note: Immunoblotting shows a protein as a band on a membrane.
Regarding `CC[C@@]1(O)C(=O)OCc2c1cc1n(c2=O)Cc2cc3ccccc3nc2-1`, the outcome was inactive.

Tested on in a further test: not listed separately
In words: Inhibition of ATR/Chk1 pathway in human A549 cells assessed as suppression of […]-induced phosphorylation of Chk1 on serine-345 residue at 20 uM incubated for 12 hrs by Western blotting analysis. The format is cell-based.
Regarding `C=C1[C@H](OC(C)=O)CC(=O)C(C)(C)/C=C/[C@H](C)C(=O)[C@@]2(O)C[C@@](C)(O)[C@H](OC(=O)c3ccccc3)[C@@H]2[C@H]1OC(C)=O`, the inhibition entry was “Active”. The same measure, in the same setting: with `C=C1[C@H](OC(C)=O)[C@@H](OC(C)=O)[C@@H](OC(C)=O)C(C)(C)/C=C/[C@H](C)[C@H](OC(C)=O)[C@@]2(O)C[C@@](C)(OC(C)=O)[C@H](OC(=O)c3ccccc3)[C@@H]2[C@H]1OC(C)=O` the entry was “Active”; with `C=C1[C@H](OC(C)=O)[C@H]2[C@@H](OC(=O)c3ccccc3)[C@](C)(O)C[C@]2(O)C(=O)[C@@H](C)/C=C/C(C)(C)C(=O)[C@H](OC(C)=O)[C@H]1OC(C)=O`, “Active”; with `C=C1[C@H](OC(C)=O)[C@H]2[C@@H](OC(=O)c3ccccc3)[C@](C)(OC(C)=O)C[C@]2(O)C(=O)[C@@H](C)/C=C/C(C)(C)C(=O)[C@H](OC(C)=O)[C@H]1OC(C)=O`, “Active”. Take `C=C1[C@H](OC(=O)C(C)C)[C@@H](OC(C)=O)[C@@H](OC(C)=O)C(C)(C)/C=C/[C@H](C)[C@H](OC(C)=O)[C@@]2(O)C[C@@](C)(OC(C)=O)[C@H](OC(=O)c3ccccc3)[C@@H]2[C@H]1OC(C)=O`: the inhibition result is “Active”.
